# Values quoted from earlier work as cited in patent publication US8759216B2, “Compositions and methods for polishing silicon nitride materials” (Cabot Microelectronics Corporation, priority 2006, dated 2014).
# Where two headings read alike, the source gives them in different places.
SMILES,pKa (first listed pKa value),pKa (second listed pKa value)
O=C(O)CCCC(=O)O [glutaric],4.34,5.41
"OP(O)O [phosphorous, phosphorous acid]",2.00,6.59
"O=C(O)c1ccccc1C(=O)O [phthalic, phthalic acid]",2.89,5.51
